Assay results as given in the Deep4Chem optical property database.
Blank lines part the entries; values can stand above or below the compound they belong to.

Assay: solvent given as SMILES

absorption maximum (in CC#N): 396 nm
absorption maximum (in CO): 400 nm
SMILES: O=C1c2ccccc2-c2c(-c3ccc([N+](=O)[O-])cc3)c(-c3ccc([N+](=O)[O-])cc3)c(-c3ccccc3)c3cccc1c23

absorption maximum (in ClCCl): 401 nm
SMILES: c1ccc(C2c3ccc4ccc5ccccc5c4c3-c3c2ccc2ccc4ccccc4c32)cc1

absorption maximum (in C1CCOC1): 330 nm
SMILES: C(=C1c2ccccc2CCc2ccccc21)c1ccc(C=C2c3ccccc3CCc3ccccc32)cc1

SMILES: CCCCCCCC[n+]1ccc(-c2cc[n+](CCCCCCCC)cc2)cc1
absorption maximum (in CC#N): 264 nm

SMILES: CN(C)c1ccc(C#Cc2cc3ccc4cc(C#Cc5ccc(N(C)C)cc5)cc5ccc(c2)c3c45)cc1
absorption maximum (in Cc1ccccc1): 421 nm

SMILES: O=c1cc(COc2ccc(I)cc2)c2c(ccc3ccccc32)o1
absorption maximum (in C1CCOC1): 349 nm
absorption maximum (in C1COCCO1): 348 nm
absorption maximum (in CC#N): 348 nm
absorption maximum (in CC(C)=O): 349 nm
absorption maximum (in CCCCO): 350 nm
absorption maximum (in CCCO): 350 nm
absorption maximum (in CCO): 350 nm
absorption maximum (in CCOC(C)=O): 348 nm
absorption maximum (in CN(C)C=O): 350 nm
absorption maximum (in CO): 348 nm
absorption maximum (in Cc1ccccc1): 350 nm
absorption maximum (in ClCCl): 349 nm

SMILES: COc1ccccc1C1=[N+]2C(=Nc3c(-c4ccccc4)cc(-c4ccccc4OC)n3[B-]2(F)F)C(c2ccccc2)=C1
absorption maximum (in Cc1ccccc1): 640 nm

absorption maximum (in CC#N): 384 nm
SMILES: CCOC(=O)c1c(C=Cc2ccccc2)oc(NC2CCCCC2)c1C(=O)OCC

SMILES: CC1(C)c2ccccc2N(c2ccc(-c3ccc(C#N)cn3)cc2)c2ccccc21
absorption maximum (in Cc1ccccc1): 384 nm

SMILES: COCCC1=Cc2nc1ccc1[nH]c(cc1CCOC)c1nc(ccc3[nH]c2cc3CCO)C(CCOC)=C1
absorption maximum (in Cc1ccccc1): 637 nm

SMILES: CCC1(CC)c2ccccc2-c2ccc(C#Cc3cc(C#Cc4ccc5c(c4)C(CC)(CC)c4ccccc4-5)c4ccc5c(C#Cc6ccc7c(c6)C(CC)(CC)c6ccccc6-7)cc(C#Cc6ccc7c(c6)C(CC)(CC)c6ccccc6-7)c6ccc3c4c65)cc21
absorption maximum (in Cc1ccccc1): 488 nm

absorption maximum (in CC#N): 350 nm
absorption maximum (in CCCCCC): 351 nm
absorption maximum (in CO): 355 nm
absorption maximum (in CS(C)=O): 352 nm
absorption maximum (in ClC(Cl)Cl): 355 nm
SMILES: CCC1=C(C)C2=Cc3cscc3B(O)N2C1=O

absorption maximum (in C1CCOC1): 419 nm
SMILES: CC(C)(C)c1ccc(C2=C(c3ccc(-n4c5ccccc5c5ccccc54)cc3)S(=O)(=O)c3c2sc(-c2ccc(-n4c5ccccc5c5ccccc54)cc2)c3-c2ccc(C(C)(C)C)cc2)cc1

absorption maximum (in C1COCCO1): 431 nm
SMILES: COc1ccc(C2=C/C(=C\c3ccccc3)C(=O)N2)cc1OC

absorption maximum (in CC#N): 370 nm
absorption maximum (in CCO): 325 nm
absorption maximum (in CN(C)C=O): 323 nm
absorption maximum (in CS(C)=O): 325 nm
absorption maximum (in ClCCl): 376 nm
SMILES: c1ccc(-c2csc(-c3ccncc3)n2)cc1

absorption maximum (in C1CCOC1): 313 nm
SMILES: Cc1sc(-c2ccc(-c3nc(-c4ccccc4)c(-c4ccccc4)[nH]3)cc2)c(C)c1C1=C(c2c(C)n(C)c3ccccc23)C(F)(F)C(F)(F)C1(F)F

SMILES: COCCC1=Cc2nc1ccc1[nH]c(c3nc(ccc4[nH]c2cc4CCOC)C(CCOC)=C3)c2c(C(=O)OC)c(C(=O)O)ccc12
absorption maximum (in Cc1ccccc1): 636 nm

absorption maximum (in C1CCOC1): 396 nm
absorption maximum (in CN(C)C=O): 390 nm
SMILES: O=C(O)c1ccc(C(=O)O)c2cc3ccccc3cc12

SMILES: Oc1ccccc1-c1nc2c3ccccc3c3ccccc3c2o1
absorption maximum (in Cc1ccccc1): 364 nm

absorption maximum (in ClCCl): 257 nm
SMILES: COc1ccc(-c2cc(-c3ccccc3)nn2C)cc1

SMILES: CC(C)(C(=O)c1ccc(N2c3ccccc3C(C)(C)c3ccccc32)cc1)C(=O)c1ccc(N2c3ccccc3C(C)(C)c3ccccc32)cc1
absorption maximum (in Cc1ccccc1): 390 nm

absorption maximum (in ClC(Cl)Cl): 419 nm
SMILES: CCC(CC)n1c2ccccc2c2cc3c(cc21)c1ccccc1n3C(CC)CC

SMILES: CC(C)c1cc(C(C)C)c(-c2ccc(-n3c4ccccc4n4c5ccccc5nc34)nc2)c(C(C)C)c1
absorption maximum (in Cc1ccccc1): 345 nm

absorption maximum (in CCO): 370 nm
SMILES: CC(C)Nc1cc2oc3cc(NC(C)C)c(F)cc3c(=O)c2cc1F

absorption maximum (in O): 278 nm
SMILES: [NH3+]C(Cc1ccc(O)c(O)c1)C(=O)[O-] (configuration not stated)

absorption maximum (in C1CCOC1): 417 nm
SMILES: Cc1cc(C)c([B-]2(c3c(C)cc(C)cc3C)[O+]=P(c3ccccc3)(c3ccccc3)c3cc(C#Cc4ccccc4)sc3-c3sc(C#Cc4ccccc4)cc32)c(C)c1
